In patent publication US20030162777A1, “Novel N-acylated heterocycles” (Recordati S.A., priority 2001, published 2003):

Key:
5-HT1A receptors = target: T1, 5-HT1A receptors (Rattus norvegicus, UniProt P19327); experiment: Inhibition of stereotypy (rhythmic forepaw treading) induced by 8-OH-DPAT in rats (post-synaptic antagonism); assay type: in vivo; details: for inhibition at 1 mg/kg / inhibition at 10 mg/kg: rat; for inhibition at 10 mg/kg: 10 mg/kg p.o.
T1 construct: from tissue; host or cells: whole animal: male Sprague-Dawley rats (post-synaptic 5-HT1A receptors)
T1 sequence (P19327 1-422): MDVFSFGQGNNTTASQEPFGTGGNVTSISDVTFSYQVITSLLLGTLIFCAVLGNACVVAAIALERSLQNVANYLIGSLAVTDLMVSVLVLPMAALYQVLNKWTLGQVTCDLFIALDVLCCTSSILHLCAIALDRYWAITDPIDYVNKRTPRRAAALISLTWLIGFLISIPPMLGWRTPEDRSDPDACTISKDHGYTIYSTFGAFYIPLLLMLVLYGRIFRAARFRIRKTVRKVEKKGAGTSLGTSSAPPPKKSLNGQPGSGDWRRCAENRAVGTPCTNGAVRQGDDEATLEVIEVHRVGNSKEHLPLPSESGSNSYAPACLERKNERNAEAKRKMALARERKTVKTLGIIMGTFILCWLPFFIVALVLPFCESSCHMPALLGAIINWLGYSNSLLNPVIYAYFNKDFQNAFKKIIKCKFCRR
Protocol: The inhibitory effect of 5-HT1A-receptor antagonists on stereotyped forepaw treading induced in rats by subcutaneous injection of 8-OH-DPAT was evaluated by the method of Tricklebank (Tricklebanket al., Eur. J. Pharmacol., 117: 15, 1985) with minor modifications as described below.
Male Sprague-Dawley rats [Crl: CD° (SD) BR] weighing 150-175 g from Charles River Italia were used. The animals were housed with free access to food and water and maintained on a forced 12-hour-light/12-hour-dark cycle at 22-24° C. of temperature. On the day of the experiment, the rats were placed singly in clear plastic containers, 10-15 minutes before administration of the vehicle or compounds to be tested. For evaluation of antagonistic activity after oral administration, the compounds were administered 0.5, 1 and 4 hours before induction of stereotypy by 8-OH-DPAT (1 mg/kg subcutaneously). Observation sessions lasted 30 seconds and began 3 minutes after 8-OH-DPAT treatment and were repeated every 3 minutes over a period of 15 minutes.
The appearance of the symptom induced by postsynaptic stimulation of 5-HT1A receptors was noted, and the intensity was scored using an intensity scale in which: 0=absent, 1=equivocal, 2=present and 3=intense. Behavioural scores for treated rats were accumulated throughout the observation time (5 observation periods) and expressed as mean values of 4 rats/dose. Change in mean values of treated animals in comparison with control (vehicle) group, expressed as per-cent inhibition, was used in order to quantify the antagonistic activity.

[1] = target: T2, human 5HT1A-serotonergic receptor (Homo sapiens, UniProt P08908); experiment: Radioligand binding to recombinant 5-HT1A receptors; details: [3H]8-OH-DPAT 1 nM, membranes of HeLa cells with human 5-HT1A receptor; Ki from IC50 by Cheng & Prusoff; read-out: Binding affinity for 5HT1A receptors, Ki
T2 construct: expressed in transfected cells; host or cells: HeLa (human cell line), stably transfected; cell membranes used
T2 sequence (P08908 1-422): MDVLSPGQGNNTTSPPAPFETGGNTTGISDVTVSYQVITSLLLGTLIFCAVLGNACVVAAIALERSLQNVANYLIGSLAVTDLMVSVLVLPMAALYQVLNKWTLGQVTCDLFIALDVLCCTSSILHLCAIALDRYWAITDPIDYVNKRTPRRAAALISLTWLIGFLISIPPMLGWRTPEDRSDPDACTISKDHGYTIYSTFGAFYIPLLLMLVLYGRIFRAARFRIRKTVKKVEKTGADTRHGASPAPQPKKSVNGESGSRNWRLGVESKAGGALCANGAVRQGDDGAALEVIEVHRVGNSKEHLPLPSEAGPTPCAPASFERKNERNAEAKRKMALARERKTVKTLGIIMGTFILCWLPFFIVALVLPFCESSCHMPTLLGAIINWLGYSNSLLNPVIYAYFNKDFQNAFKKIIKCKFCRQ
Summary of the method: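 Membranes from HeLa cells stably expressing human 5-HT1A incubated 30 min at 30 °C with 1 nM [3H]8-OH-DPAT and compound in 50 mM Tris-HCl pH 7.4, 2.5 mM MgCl2, […] pargyline. Nonspecific binding defined with 10 μM 5-HT; filtration readout, IC50 converted to Ki via Cheng–Prusoff.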

[2] = 0.5 h before 8-OH-DPAT (1 mg/kg s.c.)
[3] = 1 h before 8-OH-DPAT (1 mg/kg s.c.)
[4] = 4 h before 8-OH-DPAT (1 mg/kg s.c.)

| SMILES | Ki [1] | also measured |
| --- | --- | --- |
| O=C(C1CCCCC1)N1c2ccccc2CCC1CN1CCN(c2cccc3[nH]ccc23)CC1 (single isomer, unassigned; (-)) [(−)-1, (−)-1-(1-Cyclohexanecarbonyl-1,2,3,4-tetrahydroquinoline-2-ylmethyl)-4-(4-indolyl)piperazine] |  | post-synaptic 5-HT1A-receptor antagonist activity (in words) (5-HT1A receptors; 1 mg/kg p.o., rats): devoid of activity; inhibition at 1 mg/kg (5-HT1A receptors; 1 mg/kg p.o., 0.5 h before 8-OH-DPAT (1 mg/kg s.c.)): 19%; inhibition at 1 mg/kg (5-HT1A receptors; 1 mg/kg p.o., 1 h before 8-OH-DPAT (1 mg/kg s.c.)): 5%; inhibition at 1 mg/kg (5-HT1A receptors; 1 mg/kg p.o., 4 h before 8-OH-DPAT (1 mg/kg s.c.)): 9% |
| O=C(C1CCCCC1)N1c2ccc(F)cc2CCC1CN1CCN(c2cccc3[nH]ccc23)CC1 (stereo not shown) [Example 18, 1-(1-Cyclohexanecarbonyl-6-fluoro-1,2,3,4-tetrahydroquinoline-2-ylmethyl)-4-(4-indolyl)piperazine] | 2.8 nM | inhibition at 10 mg/kg (5-HT1A receptors; [2]): 98%; inhibition at 10 mg/kg (5-HT1A receptors; [3]): 92%; inhibition at 10 mg/kg (5-HT1A receptors; [4]): 92% |
| O=C(C1CC=CCC1)N1c2ccccc2CCC1CN1CCN(c2cccc3[nH]ccc23)CC1 (stereo not shown) [Example 24A1, 1-(1-Cyclohex-3-enylcarbonyl-1,2,3,4-tetrahydroquinoline-2-ylmethyl)-4-(4-indolyl)piperazine] | 2.6 nM | inhibition at 10 mg/kg (5-HT1A receptors; [2]): 100%; inhibition at 10 mg/kg (5-HT1A receptors; [3]): 100%; inhibition at 10 mg/kg (5-HT1A receptors; [4]): 100% |
| O=C(C1CCCC1)N1c2ccccc2CCC1CN1CCN(c2cccc3[nH]ccc23)CC1 (stereo not shown) [Example 24A3, 1-(1-Cyclopentanecarbonyl-1,2,3,4-tetrahydroquinoline-2-ylmethyl)-4-(4-indolyl)piperazine] | 5.4 nM | inhibition at 10 mg/kg (5-HT1A receptors; [2]): 100%; inhibition at 10 mg/kg (5-HT1A receptors; [3]): 93%; inhibition at 10 mg/kg (5-HT1A receptors; [4]): 100% |
| Cc1[nH]c2cccc(N3CCN(CC4CCc5ccccc5N4C(=O)C4CCCCC4)CC3)c2c1C (stereo not shown) [Example 35A13, 1-(1-Cyclohexanecarbonyl-1,2,3,4-tetrahydroquinoline-2-ylmethyl)-4-(2,3-dimethyl-4-indolyl)piperazine] | 4 nM | inhibition at 10 mg/kg (5-HT1A receptors; [3]): 95%; inhibition at 10 mg/kg (5-HT1A receptors; [4]): 100% |
| COc1ccc(C(=O)N2c3ccccc3CCC2CN2CCN(c3cccc4c3OCCO4)CC2)cc1 (stereo not shown) [Example 76A4, 1-(2,3-Dihydrobenzo[1,4]dioxin-5-yl)-4-[1-(4-methoxybenzoyl)-1,2,3,4-tetrahydroquinolin-2-ylmethyl]piperazine] | 3.9 nM |  |
| N#Cc1ccc(C(=O)N2c3ccccc3CCC2CN2CCN(c3cccc4c3OCCO4)CC2)cc1 (stereo not shown) [Example 76A5, 1-[1-(4-Cyanobenzoyl)-1,2,3,4-tetrahydroquinolin-2-ylmethyl]-4-(2,3-dihydrobenzo[1,4]dioxin-5-yl)piperazine] | 12.4 nM |  |
| O=C(Cc1cccs1)N1c2ccccc2CCC1CN1CCN(c2cccc3c2OCCO3)CC1 (stereo not shown) [Example 76A6, 1-(2,3-Dihydrobenzo[1,4]dioxin-5-yl)-4-[1-[2-(2-thienyl)acetyl]-1,2,3,4-tetrahydroquinolin-2-ylmethyl]piperazine] | 5.5 nM |  |
| O=C(Cc1ccsc1)N1c2ccccc2CCC1CN1CCN(c2cccc3c2OCCO3)CC1 (stereo not shown) [Example 76A7, 1-(2,3-Dihydrobenzo[1,4]dioxin-5-yl)-4-[1-[2-(3-thienyl)acetyl]-1,2,3,4-tetrahydroquinolin-2-ylmethyl]piperazine] | 8.5 nM |  |
| O=C(C1CCCCC1)N1c2ccccc2CCC1CN1CCN(c2ccccc2OS(=O)(=O)C(F)(F)F)CC1 (stereo not shown) [Example 79, 1-(1-Cyclohexanecarbonyl-1,2,3,4-tetrahydroquinoline-2-ylmethyl)-4-(2-triluoromethanesulphonyloxyphenyl)piperazine] | 4.5 nM |  |

Now from value to molecule, other results behind:

| Ki [1] | SMILES | also measured |
| --- | --- | --- |
| 19.2 nM | O=C(C1CCC1)N1c2ccccc2CCC1CN1CCN(c2cccc3c2OCCO3)CC1 (stereo not shown) [Example 76A8] |  |
| 21.5 nM | O=S(=O)(c1ccccc1)N1c2ccccc2CCC1CN1CCN(c2cccc3c2OCCO3)CC1 (stereo not shown) [Example 76A10, 1-(1-Benzenesulphonyl-1,2,3,4-tetrahydroquinolin-2-ylmethyl)-4-(2,3-dihydrobenzo[1,4]dioxin-5-yl)piperazine] |  |
| 4.5 nM | O=S(=O)(Cc1ccccc1)N1c2ccccc2CCC1CN1CCN(c2cccc3c2OCCO3)CC1 (stereo not shown) [Example 76A11, 1-(2,3-Dihydrobenzo[1,4]dioxin-5-yl)-4-(1-phenylmethanesulphonyl-1,2,3,4-tetrahydroquinolin-2-ylmethyl)piperazine] |  |
| 8 nM | Cc1ccccc1NC(=O)N1c2ccccc2CCC1CN1CCN(c2cccc3c2OCCO3)CC1 (stereo not shown) [Example 76A12, 1-(2,3-Dihydrobenzo[1,4]dioxin-5-yl)-4-[1-(2-methylphenylaminocarbonyl)-1,2,3,4-tetrahydroquinolin-2-ylmethyl]piperazine] |  |
| 2.3 nM | CC(C)(C)NC(=O)N1c2ccccc2CCC1CN1CCN(c2cccc3c2OCCO3)CC1 (stereo not shown) [Example 76A13, 1-(2,3-Dihydrobenzo[1,4]dioxin-5-yl)-4-[1-(1,1-dimethylethylaminocarbonyl)-1,2,3,4-tetrahydroquinolin-2-ylmethyl]piperazine] |  |
| 8.1 nM | CC(=O)N1CCC(C(=O)N2c3ccccc3CCC2CN2CCN(c3cccc4c3OCCO4)CC2)CC1 (stereo not shown) [Example 76A15, 1-[1-(1-acetyl-4-piperidinecarbonyl)-1,2,3,4-tetrahydroquinolin-2-ylmethyl]-4-(2,3-dihydrobenzo[1,4]dioxin-5-yl)piperazine] |  |
| 24.2 nM | COc1ccccc1OCCN(C)CC1CCc2ccccc2N1C(=O)CC(C)(C)C (stereo not shown) [Example 77A1, N-[1-(3,3-Dimethylbutanoyl)-1,2,3,4-tetrahydroquinolin-2-ylmethyl]-N-[2-(2-methoxyphenoxy)ethyl]methylamine] |  |
| 13.1 nM | COc1ccc(C(=O)N2c3ccccc3CCC2CN(C)CCOc2ccccc2OC)cc1 (stereo not shown) [Example 77A5, N-[1-(4-Methoxybenzoyl)-1,2,3,4-tetrahydroquinolin-2-ylmethyl]-N-[2-(2-methoxyphenoxy)ethyl]methylamine] |  |
| 41.2 nM | COc1cc(F)ccc1N1CCN(CC2CCc3cc(N)ccc3N2C(=O)C2CCCCC2)CC1 (stereo not shown) [Example 85, 1-(6-Amino-1-cyclohexanecarbonyl-1,2,3,4-tetrahydroquinoline-2-ylmethyl)-4-(4-fluoro-2-methoxyphenyl)piperazine] |  |
| 18.2 nM | COc1cc(C)ccc1N1CCN(CC2CCc3ccccc3N2C(=O)C2CCCCC2)CC1 (stereo not shown) [Example 86A, 1-(1-Cyclohexanecarbonyl-1,2,3,4-tetrahydroquinoline-2-ylmethyl)-4-(2-methoxy-4-methylphenyl)piperazine] |  |
